# According to patent US20210353593A1 (Chinook Therapeutics, Inc., priority 2019, published 2021):
# Read-outs that look alike come from different tables or passages of the source.
# Legend:
# [1] = test system: primary human renal mesangial cells (HRMCs); test: ET-1 induced proliferation (BrdU) of primary human renal mesangial cells; assay type: cell-based; settings: 10 ng/mL ET-1, read-out: IC50, ET-1 induced HRMC proliferation
# [2] = test system: kidney tissue of g-ddY mice
# [3] = patients with diabetic kidney disease; cited from earlier work
# [4] = 10 mg/kg/day vs untreated control
# [5] = 20 mg/kg/day vs untreated control
# [6] = 30 mg/kg/day vs untreated control
structure (smiles),measurement,setting,value
"CCCCN(CCCC)C(=O)CN1C[C@H](c2ccc3c(c2)OCO3)[C@@H](C(=O)O)[C@@H]1c1ccc(OC)cc1 [Atrasentan, (2R,3R,4S)-4-(1,3-benzodioxol-5-yl)-1-[2-(dibutylamino)-2-oxoethyl]-2-(4-methoxyphenyl)pyrrolidine-3-carboxylic acid]",IC50,[1]; 48 hours,4.2 nM
same,IC50,"[1]; Homo sapiens, Mesangial cell, 48 h",~5.1 nM
same,IC50,"[1]; Homo sapiens, Mesangial cell, 72 h",~50.8 nM
same,number of downregulated genes,[2]; 10 mg/kg/day versus control,15 genes
same,number of upregulated genes,[2]; 10 mg/kg/day versus control,25 genes
same,Acnat2 logFC,[2]; 10 mg/kg/day vs control,0.9174
same,Apoc1 logFC,[2]; 10 mg/kg/day vs control,−1.929
same,Arnt1 logFC,[2]; 10 mg/kg/day vs control,1.039
same,Asl logFC,[2]; 10 mg/kg/day vs control,0.707
same,Bckdha logFC,[2]; 10 mg/kg/day vs control,0.5492
same,Bmp6 logFC,[2]; 10 mg/kg/day vs control,0.7141
same,Ccn1 logFC,[2]; 10 mg/kg/day vs control,−1.087
same,Ccn2 logFC,[2]; 10 mg/kg/day vs control,−0.5379
same,Cish logFC,[2]; 10 mg/kg/day vs control,−1.301
same,Cryl1 logFC,[2]; 10 mg/kg/day vs control,0.5206
same,Dbp logFC,[2]; 10 mg/kg/day vs control,−1.205
same,Dpep1 logFC,[2]; 10 mg/kg/day vs control,0.6476
same,Ethe1 logFC,[2]; 10 mg/kg/day vs control,0.941
same,Filipl1 logFC,[2]; 10 mg/kg/day vs control,−0.8186
same,Frmd4b logFC,[2]; 10 mg/kg/day vs control,0.6863
same,Gapdh logFC,[2]; 10 mg/kg/day vs control,0.6257
same,Gem logFC,[2]; 10 mg/kg/day vs control,−1.508
same,Gm15910 logFC,[2]; 10 mg/kg/day vs control,−1.397
same,Hacl1 logFC,[2]; 10 mg/kg/day vs control,0.6805
same,Igf1 logFC,[2]; 10 mg/kg/day vs control,−0.8723
same,Mapt logFC,[2]; 10 mg/kg/day vs control,0.7035
same,Mef2c logFC,[2]; 10 mg/kg/day vs control,−0.6217
same,Mmd logFC,[2]; 10 mg/kg/day vs control,−1.012
same,Mnt logFC,[2]; 10 mg/kg/day vs control,0.6669
same,Ndrg1 logFC,[2]; 10 mg/kg/day vs control,0.9887
same,Npas2 logFC,[2]; 10 mg/kg/day vs control,1.415
same,Nr4a1 logFC,[2]; 10 mg/kg/day vs control,−1.525
same,Pde3b logFC,[2]; 10 mg/kg/day vs control,−0.6611
same,Pdzd3 logFC,[2]; 10 mg/kg/day vs control,0.7268
same,Pdzk1ip1 logFC,[2]; 10 mg/kg/day vs control,0.5308
same,Pfkffb3 logFC,[2]; 10 mg/kg/day vs control,−1.166
same,S100g logFC,[2]; 10 mg/kg/day vs control,0.7546
same,Sirt3 logFC,[2]; 10 mg/kg/day vs control,0.7376
same,Slc5a2 logFC,[2]; 10 mg/kg/day vs control,0.7478
same,Slc6a19 logFC,[2]; 10 mg/kg/day vs control,0.8567
same,Slc7a9 logFC,[2]; 10 mg/kg/day vs control,0.5456
same,Slc16a1 logFC,[2]; 10 mg/kg/day vs control,0.9808
same,Slc19a1 logFC,[2]; 10 mg/kg/day vs control,0.6451
same,Slc34a3 logFC,[2]; 10 mg/kg/day vs control,0.8923
same,Zeb2 logFC,[2]; 10 mg/kg/day vs control,−0.5638
same,ET1 gene signature genes downregulated,[2]; [4],"Grk5, Mllt3, Klf2, Pparg, Hgf, Edn1, Fos, Ptgs2, and IL-1b"
same,ET1 gene signature genes upregulated,[2]; [4],"Ccnd1, Ppara, Agt, Map2k2 and Hoxa9"
same,number of downregulated genes,[2]; 20 mg/kg/day versus control,281 genes
same,number of upregulated genes,[2]; 20 mg/kg/day versus control,214 genes
same,1700101I11Rik logFC,[2]; 20 mg/kg/day vs control,1.658
same,A530016L24Rik logFC,[2]; 20 mg/kg/day vs control,−3.027
same,Abcd2 logFC,[2]; 20 mg/kg/day vs control,−2.686
same,Adcy2 logFC,[2]; 20 mg/kg/day vs control,−2.484
same,Ankef1 logFC,[2]; 20 mg/kg/day vs control,−3.382
same,Apol6 logFC,[2]; 20 mg/kg/day vs control,−3.616
same,Aspdh logFC,[2]; 20 mg/kg/day vs control,0.9646
same,Bche logFC,[2]; 20 mg/kg/day vs control,−4.062
same,C5ar2 logFC,[2]; 20 mg/kg/day vs control,−4.271
same,Cadm3 logFC,[2]; 20 mg/kg/day vs control,−2.439
same,Ccl8 logFC,[2]; 20 mg/kg/day vs control,−2.999
same,Ccl20 logFC,[2]; 20 mg/kg/day vs control,−3.563
same,Clec2h logFC,[2]; 20 mg/kg/day vs control,1.078
same,Cndp1 logFC,[2]; 20 mg/kg/day vs control,0.9373
same,Dio2 logFC,[2]; 20 mg/kg/day vs control,−3.823
same,Dnase1 logFC,[2]; 20 mg/kg/day vs control,1.086
same,Ebf2 logFC,[2]; 20 mg/kg/day vs control,−3.715
same,Fcamr logFC,[2]; 20 mg/kg/day vs control,1.182
same,Frs3 logFC,[2]; 20 mg/kg/day vs control,1.094
same,Ftcd logFC,[2]; 20 mg/kg/day vs control,1.086
same,Glis1 logFC,[2]; 20 mg/kg/day vs control,0.8776
same,Hao2 logFC,[2]; 20 mg/kg/day vs control,0.9855
same,Hrg logFC,[2]; 20 mg/kg/day vs control,4.888
same,Igibp1 logFC,[2]; 20 mg/kg/day vs control,2.82
same,Il1b logFC,[2]; 20 mg/kg/day vs control,−3.029
same,Iv1 logFC,[2]; 20 mg/kg/day vs control,−3.8887
same,Klf15 logFC,[2]; 20 mg/kg/day vs control,0.8799
same,Krt5 logFC,[2]; 20 mg/kg/day vs control,−3.044
same,Lep logFC,[2]; 20 mg/kg/day vs control,−5.905
same,Lgals12 logFC,[2]; 20 mg/kg/day vs control,−2.536
same,Lhx1 logFC,[2]; 20 mg/kg/day vs control,0.9258
same,Ly6d logFC,[2]; 20 mg/kg/day vs control,−3.377
same,Morn2 logFC,[2]; 20 mg/kg/day vs control,0.9375
same,Nat81 logFC,[2]; 20 mg/kg/day vs control,−3.263
same,Ndrg1 logFC,[2]; 20 mg/kg/day vs control,0.8946
same,Npas2 logFC,[2]; 20 mg/kg/day vs control,1.012
same,Otop1 logFC,[2]; 20 mg/kg/day vs control,−5.808
same,Paral1 logFC,[2]; 20 mg/kg/day vs control,−5.133
same,Pfn3 logFC,[2]; 20 mg/kg/day vs control,0.934
same,Plekhs1 logFC,[2]; 20 mg/kg/day vs control,−3.661
same,Prkar2b logFC,[2]; 20 mg/kg/day vs control,−2.468
same,Prodh logFC,[2]; 20 mg/kg/day vs control,0.8987
same,Pvalb logFC,[2]; 20 mg/kg/day vs control,0.9441
same,Ren1 logFC,[2]; 20 mg/kg/day vs control,1.117
same,Slc6a19 logFC,[2]; 20 mg/kg/day vs control,0.9585
same,Slc34a3 logFC,[2]; 20 mg/kg/day vs control,0.9345
same,Sprr2a3 logFC,[2]; 20 mg/kg/day vs control,−4.403
same,Tmem37 logFC,[2]; 20 mg/kg/day vs control,0.9439
same,Tns4 logFC,[2]; 20 mg/kg/day vs control,−2.381
same,ET1 gene signature genes downregulated,[2]; [5],"Nfatc1, Grk5, Klf2, Cav1, Pparg, Itga5, Myc, Ednra, Sell, Hgf, Mmp2, Edn1, Syk, Fos, and IL-1b"
same,ET1 gene signature genes upregulated,[2]; [5],"Ccdn1, Cat, Ppara, Map2k2, Hoxa9, Agt, and Egfr"
same,Ednra and Ednrb gene expression,[2]; 30 mg/kg/day,downregulated
same,number of downregulated genes,[2]; 30 mg/kg/day versus control,768 genes
same,number of upregulated genes,[2]; 30 mg/kg/day versus control,910 genes
same,1700003D09Rik logFC,[2]; 30 mg/kg/day vs control,−2.087
same,1700101I11Rik logFC,[2]; 30 mg/kg/day vs control,1.613
same,A530016L24Rik logFC,[2]; 30 mg/kg/day vs control,−3.0348
same,Adamts17 logFC,[2]; 30 mg/kg/day vs control,−3.191
same,Adcy2 logFC,[2]; 30 mg/kg/day vs control,−2.327
same,Ankef1 logFC,[2]; 30 mg/kg/day vs control,−2.3582
same,Arhgap36 logFC,[2]; 30 mg/kg/day vs control,−2.908
same,Atf3 logFC,[2]; 30 mg/kg/day vs control,−2.22
same,Bhmt logFC,[2]; 30 mg/kg/day vs control,4.173
same,Calb1 logFC,[2]; 30 mg/kg/day vs control,1.211
same,Ccl20 logFC,[2]; 30 mg/kg/day vs control,−2.471
same,Chadl logFC,[2]; 30 mg/kg/day vs control,1.41
same,Clec2h logFC,[2]; 30 mg/kg/day vs control,1.215
same,Clec4d logFC,[2]; 30 mg/kg/day vs control,−4.65
same,Cxcl2 logFC,[2]; 30 mg/kg/day vs control,−2.6664
same,Cyp27b1 logFC,[2]; 30 mg/kg/day vs control,1.35
same,E030018B13Rik logFC,[2]; 30 mg/kg/day vs control,−2.373
same,Ebf2 logFC,[2]; 30 mg/kg/day vs control,−2.386
same,Ethe1 logFC,[2]; 30 mg/kg/day vs control,1.211
same,Fam163b logFC,[2]; 30 mg/kg/day vs control,−2.785
same,Fat3 logFC,[2]; 30 mg/kg/day vs control,−2.067
same,Frs3 logFC,[2]; 30 mg/kg/day vs control,1.176
same,G6pc logFC,[2]; 30 mg/kg/day vs control,1.207
same,Gm20026 logFC,[2]; 30 mg/kg/day vs control,−2.0755
same,Igfbp1 logFC,[2]; 30 mg/kg/day vs control,3.447
same,Igkv3-5 logFC,[2]; 30 mg/kg/day vs control,−2.722
same,Il1b logFC,[2]; 30 mg/kg/day vs control,−2.263
same,Kcnk2 logFC,[2]; 30 mg/kg/day vs control,−2.431
same,Kif1a logFC,[2]; 30 mg/kg/day vs control,−2.108
same,Misp3 logFC,[2]; 30 mg/kg/day vs control,1.307
same,Mogat2 logFC,[2]; 30 mg/kg/day vs control,1.285
same,Ndrg1 logFC,[2]; 30 mg/kg/day vs control,1.197
same,Nepn logFC,[2]; 30 mg/kg/day vs control,1.291
same,Nkx3-1 logFC,[2]; 30 mg/kg/day vs control,1.294
same,Npas2 logFC,[2]; 30 mg/kg/day vs control,1.394
same,Pgam2 logFC,[2]; 30 mg/kg/day vs control,1.24
same,Plch2 logFC,[2]; 30 mg/kg/day vs control,−2.423
same,Pvalb logFC,[2]; 30 mg/kg/day vs control,1.389
same,Ren1 logFC,[2]; 30 mg/kg/day vs control,1.531
same,Rnf182 logFC,[2]; 30 mg/kg/day vs control,−2.817
same,S100g logFC,[2]; 30 mg/kg/day vs control,1.296
same,Slc6a19 logFC,[2]; 30 mg/kg/day vs control,1.238
same,Slc16a1 logFC,[2]; 30 mg/kg/day vs control,1.178
same,Slc34a3 logFC,[2]; 30 mg/kg/day vs control,1.436
same,Stx1b logFC,[2]; 30 mg/kg/day vs control,−2.245
same,Tns4 logFC,[2]; 30 mg/kg/day vs control,−2.443
same,Wnt10a logFC,[2]; 30 mg/kg/day vs control,−2.071
same,Xirp2 logFC,[2]; 30 mg/kg/day vs control,−2.619
same,ET1 gene signature genes downregulated,[2]; [6],"Ednrb, Myc, Mllt3, Hdac7, Ednra, Itga5, Grk5, Pparg, Klf2, Hgf, Mmp2, Sell, Sphk1, Fos, Syk, Edn1, and IL-1b"
same,ET1 gene signature genes upregulated,[2]; [6],"Ccnd1, Agt, Cat, Map2k2, Hoxa9, and Ppara"
same,ET1 (End1) gene expression,"[2]; all three doses (10, 20, 30 mg/kg/day)",downregulated
same,genes overlapping with human specific Atra/ET1 gene signature,[2]; atrasentan treated mice,53 of 60
same,risk of renal events (doubling of serum creatinine or end-stage kidney disease),[3],significantly reducing the risk of renal events
